Measurements: PubChem BioAssay AID2060903 (Molecular Pharmacology Branch, DTP, NCI, 2025)

System: 377384-186-R-J1-PDC complex spheroid viability
Test: Anticancer human tumor 377384-186-R-J1-PDC patient-derived pancreatic carcinoma cell line growth inhibition [RAS]
Conditions: for IC50: curve of first compound; for viability, T/C: stronger effect = lower value
How it was run: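 Agents were tested in combination matrices in half-log decrements from a top concentration at or near clinical Cmax (10 microM if undetermined). Targets were multi-cell spheroids of tumour lines plus HUVEC and MSC stromal cells.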

[1] = second compound 0.000949 µM, first compound 0.0316 µM
[2] = second compound 0.000949 µM, first compound 0.1 µM
[3] = second compound 0.000949 µM, first compound 0.316 µM
[4] = second compound 0.000949 µM, first compound 1 µM
[5] = second compound 0.003 µM, first compound 0.0316 µM
[6] = second compound 0.003 µM, first compound 0.1 µM
[7] = second compound 0.003 µM, first compound 0.316 µM
[8] = second compound 0.003 µM, first compound 1 µM
[9] = second compound 0.00949 µM, first compound 0.0316 µM
[10] = second compound 0.00949 µM, first compound 0.1 µM
[11] = second compound 0.00949 µM, first compound 0.316 µM
[12] = second compound 0.00949 µM, first compound 1 µM
[13] = second compound 0.03 µM, first compound 0.0316 µM
[14] = second compound 0.03 µM, first compound 0.1 µM
[15] = second compound 0.03 µM, first compound 0.316 µM
[16] = second compound 0.03 µM, first compound 1 µM
[17] = second compound 0.0949 µM, first compound 0.0316 µM
[18] = second compound 0.0949 µM, first compound 0.1 µM
[19] = second compound 0.0949 µM, first compound 0.316 µM
[20] = second compound 0.0949 µM, first compound 1 µM
[21] = second compound 0.3 µM, first compound 0.0316 µM
[22] = second compound 0.3 µM, first compound 0.1 µM
[23] = second compound 0.3 µM, first compound 0.316 µM
[24] = second compound 0.3 µM, first compound 1 µM
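Further: spheroids exposed to compounds for seven days before readout.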

## CC(=O)OC12COC1CC(O)C1(C)C(=O)C(O)C3=C(C)C(OC(=O)C(O)C(NC(=O)OC(C)(C)C)c4ccccc4)CC(O)(C(OC(=O)c4ccccc4)C21)C3(C)C (stereo unspecified) + CCn1c(-c2cc(N3CCN(C)CC3)cnc2C(C)OC)c2c3cc(ccc31)-c1csc(n1)CC(NC(=O)C1CC1C)C(=O)N1CCCC(N1)C(=O)OCC(C)(C)C2
Second compound 0.000949 µM
  IC50: < 31.6 nM
Second compound 0.003 µM
  IC50: < 31.6 nM
Second compound 0.00949 µM
  IC50: < 31.6 nM
Second compound 0.03 µM
  IC50: < 31.6 nM
Second compound 0.0949 µM
  IC50: < 31.6 nM
Second compound 0.3 µM
  IC50: < 31.6 nM
[1]
  viability, T/C: 3.43%
[2]
  viability, T/C: 4.27%
[3]
  viability, T/C: 3.99%
[4]
  viability, T/C: 4.95%
Second compound 0.000949 µM, first compound 3.16 µM
  viability, T/C: 5.23%
Second compound 0.000949 µM, first compound 10 µM
  viability, T/C: 5.38%
[5]
  viability, T/C: 2.96%
[6]
  viability, T/C: 1.47%
[7]
  viability, T/C: 2.97%
[8]
  viability, T/C: 2.21%
Second compound 0.003 µM, first compound 3.16 µM
  viability, T/C: 2.97%
Second compound 0.003 µM, first compound 10 µM
  viability, T/C: 2.38%
[9]
  viability, T/C: 1.88%
[10]
  viability, T/C: 2.6%
[11]
  viability, T/C: 2%
[12]
  viability, T/C: 2.25%
Second compound 0.00949 µM, first compound 3.16 µM
  viability, T/C: 2.05%
Second compound 0.00949 µM, first compound 10 µM
  viability, T/C: 2.33%
[13]
  viability, T/C: 1.57%
[14]
  viability, T/C: 1.84%
[15]
  viability, T/C: 1.46%
[16]
  viability, T/C: 1.65%
Second compound 0.03 µM, first compound 3.16 µM
  viability, T/C: 2.16%
Second compound 0.03 µM, first compound 10 µM
  viability, T/C: 1.64%
[17]
  viability, T/C: 1.97%
[18]
  viability, T/C: 1.63%
[19]
  viability, T/C: 1.57%
[20]
  viability, T/C: 1.56%
Second compound 0.0949 µM, first compound 3.16 µM
  viability, T/C: 1.78%
Second compound 0.0949 µM, first compound 10 µM
  viability, T/C: 1.2%
[21]
  viability, T/C: 1.96%
[22]
  viability, T/C: 1.22%
[23]
  viability, T/C: 2.82%
[24]
  viability, T/C: 1.84%
Second compound 0.3 µM, first compound 3.16 µM
  viability, T/C: 1.23%
Second compound 0.3 µM, first compound 10 µM
  viability, T/C: 1.25%

## CCc1c2c(nc3ccc(O)cc13)-c1cc3c(c(=O)n1C2)COC(=O)[C@]3(O)CC + CCn1c(-c2cc(N3CCN(C)CC3)cnc2C(C)OC)c2c3cc(ccc31)-c1csc(n1)CC(NC(=O)C1CC1C)C(=O)N1CCCC(N1)C(=O)OCC(C)(C)C2
Second compound 0.000949 µM
  IC50: < 0.949 nM
Second compound 0.003 µM
  IC50: < 0.949 nM
Second compound 0.00949 µM
  IC50: < 0.949 nM
Second compound 0.03 µM
  IC50: < 0.949 nM
Second compound 0.0949 µM
  IC50: < 0.949 nM
Second compound 0.3 µM
  IC50: < 0.949 nM
Second compound 0.000949 µM, first compound 0.000949 µM
  viability, T/C: 33.1%
Second compound 0.000949 µM, first compound 0.003 µM
  viability, T/C: 21.3%
Second compound 0.000949 µM, first compound 0.00949 µM
  viability, T/C: 10.2%
Second compound 0.000949 µM, first compound 0.03 µM
  viability, T/C: 5.07%
Second compound 0.000949 µM, first compound 0.0949 µM
  viability, T/C: 2.53%
Second compound 0.000949 µM, first compound 0.3 µM
  viability, T/C: 1.79%
Second compound 0.003 µM, first compound 0.000949 µM
  viability, T/C: 20.8%
Second compound 0.003 µM, first compound 0.003 µM
  viability, T/C: 7.71%
Second compound 0.003 µM, first compound 0.00949 µM
  viability, T/C: 4.82%
Second compound 0.003 µM, first compound 0.03 µM
  viability, T/C: 3.05%
Second compound 0.003 µM, first compound 0.0949 µM
  viability, T/C: 2.03%
Second compound 0.003 µM, first compound 0.3 µM
  viability, T/C: 1.92%
Second compound 0.00949 µM, first compound 0.000949 µM
  viability, T/C: 4.34%
Second compound 0.00949 µM, first compound 0.003 µM
  viability, T/C: 3.24%
Second compound 0.00949 µM, first compound 0.00949 µM
  viability, T/C: 2.6%
Second compound 0.00949 µM, first compound 0.03 µM
  viability, T/C: 2.11%
Second compound 0.00949 µM, first compound 0.0949 µM
  viability, T/C: 2.15%
Second compound 0.00949 µM, first compound 0.3 µM
  viability, T/C: 1.25%
Second compound 0.03 µM, first compound 0.000949 µM
  viability, T/C: 2.43%
Second compound 0.03 µM, first compound 0.003 µM
  viability, T/C: 2.09%
Second compound 0.03 µM, first compound 0.00949 µM
  viability, T/C: 2.04%
Second compound 0.03 µM, first compound 0.03 µM
  viability, T/C: 2.06%
Second compound 0.03 µM, first compound 0.0949 µM
  viability, T/C: 1.98%
Second compound 0.03 µM, first compound 0.3 µM
  viability, T/C: 1.26%
Second compound 0.0949 µM, first compound 0.000949 µM
  viability, T/C: 1.98%
Second compound 0.0949 µM, first compound 0.003 µM
  viability, T/C: 1.94%
Second compound 0.0949 µM, first compound 0.00949 µM
  viability, T/C: 1.8%
Second compound 0.0949 µM, first compound 0.03 µM
  viability, T/C: 1.65%
Second compound 0.0949 µM, first compound 0.0949 µM
  viability, T/C: 1.4%
Second compound 0.0949 µM, first compound 0.3 µM
  viability, T/C: 0.95%
Second compound 0.3 µM, first compound 0.000949 µM
  viability, T/C: 1.39%
Second compound 0.3 µM, first compound 0.003 µM
  viability, T/C: 1.76%
Second compound 0.3 µM, first compound 0.00949 µM
  viability, T/C: 1.84%
Second compound 0.3 µM, first compound 0.03 µM
  viability, T/C: 1.68%
Second compound 0.3 µM, first compound 0.0949 µM
  viability, T/C: 1.29%
Second compound 0.3 µM, first compound 0.3 µM
  viability, T/C: 0.71%

## Nc1ccn(C2OC(CO)C(O)C2(F)F)c(=O)n1 (stereo unspecified) + CCn1c(-c2cc(N3CCN(C)CC3)cnc2C(C)OC)c2c3cc(ccc31)-c1csc(n1)CC(NC(=O)C1CC1C)C(=O)N1CCCC(N1)C(=O)OCC(C)(C)C2
Second compound 0.000949 µM
  IC50: < 3.16 nM
Second compound 0.003 µM
  IC50: < 3.16 nM
Second compound 0.00949 µM
  IC50: < 3.16 nM
Second compound 0.03 µM
  IC50: < 3.16 nM
Second compound 0.0949 µM
  IC50: < 3.16 nM
Second compound 0.3 µM
  IC50: < 3.16 nM
Second compound 0.000949 µM, first compound 0.00316 µM
  viability, T/C: 41.1%
Second compound 0.000949 µM, first compound 0.01 µM
  viability, T/C: 18.4%
[1]
  viability, T/C: 4.12%
[2]
  viability, T/C: 3.96%
[3]
  viability, T/C: 3.39%
[4]
  viability, T/C: 3.44%
Second compound 0.003 µM, first compound 0.00316 µM
  viability, T/C: 19%
Second compound 0.003 µM, first compound 0.01 µM
  viability, T/C: 8.01%
[5]
  viability, T/C: 5.2%
[6]
  viability, T/C: 2.62%
[7]
  viability, T/C: 3.06%
[8]
  viability, T/C: 2.55%
Second compound 0.00949 µM, first compound 0.00316 µM
  viability, T/C: 4.2%
Second compound 0.00949 µM, first compound 0.01 µM
  viability, T/C: 3.81%
[9]
  viability, T/C: 3.02%
[10]
  viability, T/C: 2.45%
[11]
  viability, T/C: 2.8%
[12]
  viability, T/C: 2.63%
Second compound 0.03 µM, first compound 0.00316 µM
  viability, T/C: 2.29%
Second compound 0.03 µM, first compound 0.01 µM
  viability, T/C: 3.33%
[13]
  viability, T/C: 2.15%
[14]
  viability, T/C: 2.11%
[15]
  viability, T/C: 3.23%
[16]
  viability, T/C: 2.21%
Second compound 0.0949 µM, first compound 0.00316 µM
  viability, T/C: 2.1%
Second compound 0.0949 µM, first compound 0.01 µM
  viability, T/C: 2.03%
[17]
  viability, T/C: 1.97%
[18]
  viability, T/C: 1.8%
[19]
  viability, T/C: 1.92%
[20]
  viability, T/C: 1.8%
Second compound 0.3 µM, first compound 0.00316 µM
  viability, T/C: 1.98%
Second compound 0.3 µM, first compound 0.01 µM
  viability, T/C: 2.16%
[21]
  viability, T/C: 1.73%
[22]
  viability, T/C: 1.47%
[23]
  viability, T/C: 1.95%
[24]
  viability, T/C: 2.17%
